Experimental data reported in the NIST ThermoML archive (doi:10.1016/j.jct.2018.12.021).
± gives the expanded uncertainty stated by the source.

Experiment: mn = molality of the nth substance listed, in mol/kg
Conditions: 100 kPa, Liquid; for electrical conductivity: Direct current cell with electrodes; for mass density: Vibrating tube method

CCCCCCCCCCCC[n+]1cscc1C.[Br-] [N-dodecyl-4-methylthiazolium bromide] + O
Conditions | electrical conductivity, 303.15 K [S/m] | electrical conductivity, 308.15 K [S/m] | electrical conductivity, 313.15 K [S/m] | mass density, 303.15 K [kg/m3] | mass density, 308.15 K [kg/m3] | mass density, 313.15 K [kg/m3]
m1 = 0.0015 | – | 0.0184 ± 0.0011 | 0.02 ± 0.0012 | 995.66 ± 1.6 | 994.04 ± 1.6 | 992.22 ± 1.6
m1 = 0.00206 | – | 0.0244 ± 0.0016 | 0.0267 ± 0.0018 | 995.68 ± 1.6 | 994.06 ± 1.6 | 992.23 ± 1.6
m1 = 0.0025 | – | 0.03 ± 0.0019 | 0.0329 ± 0.0021 | 995.7 ± 1.6 | 994.08 ± 1.6 | 992.24 ± 1.6
m1 = 0.00402 | – | 0.047 ± 0.0031 | 0.0515 ± 0.0033 | 995.77 ± 1.6 | 994.13 ± 1.6 | 992.28 ± 1.6
m1 = 0.005 | – | 0.0581 ± 0.0037 | 0.0634 ± 0.004 | 995.82 ± 1.6 | 994.18 ± 1.6 | 992.31 ± 1.6
m1 = 0.00561 | – | – | – | 995.86 ± 1.6 | 994.21 ± 1.6 | 992.34 ± 1.6
m1 = 0.00708 | – | 0.0803 ± 0.005 | 0.0877 ± 0.0055 | 995.93 ± 1.6 | 994.28 ± 1.6 | 992.39 ± 1.6
m1 = 0.00803 | – | – | – | 995.98 ± 1.6 | 994.33 ± 1.6 | 992.43 ± 1.6
m1 = 0.00906 | – | 0.1 ± 0.0046 | 0.11 ± 0.0051 | 996.03 ± 1.6 | 994.37 ± 1.6 | 992.47 ± 1.6
m1 = 0.01216 | 0.103 ± 0.0041 | 0.114 ± 0.0047 | 0.125 ± 0.005 | 996.17 ± 1.6 | 994.49 ± 1.6 | 992.61 ± 1.6
m1 = 0.01507 | 0.114 ± 0.0051 | 0.127 ± 0.0055 | 0.138 ± 0.0058 | 996.3 ± 1.6 | 994.61 ± 1.6 | 992.72 ± 1.6
m1 = 0.01759 | – | – | – | 996.4 ± 1.6 | 994.69 ± 1.6 | 992.81 ± 1.6
m1 = 0.02033 | 0.137 ± 0.0064 | 0.15 ± 0.0069 | 0.162 ± 0.0075 | 996.53 ± 1.6 | 994.82 ± 1.6 | 992.9 ± 1.6
m1 = 0.02365 | – | – | – | 996.65 ± 1.6 | 994.89 ± 1.6 | 993 ± 1.6
